# Measurements reported in patent US20070129438A1 (priority 2002, published 2007).
# Molecular target: abnormal prion protein (Ovis aries, UniProt P23907)
# Type: biochemical, sheep
# Chain of abnormal prion protein (P23907 25-233 limits assumed): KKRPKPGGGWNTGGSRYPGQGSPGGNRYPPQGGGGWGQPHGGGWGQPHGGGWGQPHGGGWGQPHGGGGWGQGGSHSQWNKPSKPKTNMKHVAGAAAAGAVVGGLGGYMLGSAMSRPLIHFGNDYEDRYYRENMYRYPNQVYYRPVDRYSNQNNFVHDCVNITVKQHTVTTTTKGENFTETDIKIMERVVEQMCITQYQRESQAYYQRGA
smiles,measurement,setting,value
CC(C)C[C@H](N)C(=O)O [leucine],suppression of proliferation of abnormal prion protein in vitro,"leucine 15 mg/mL, PMCA",effectively suppressed proliferation of abnormal prion protein
same,bands of PK resistant fragments after PMCA (Western blotting),"leucine final concentration 15 mg/mL, up to 10 cycles of incubation-sonication, PK 50 μg/mL",no prominent bands were formed
